Measurements taken from ChEMBL document CHEMBL2074305, “P-glycoprotein induction in rat liver epithelial cells in response to acute 3-methylcholanthrene treatment” (Biochem Pharmacol, 1996).

What was measured:
[1] = target: Multidrug resistance protein 1a (Rattus norvegicus) (UniProt Q6PSM0); experiment: TP_TRANSPORTER: Northern blot in vitro, nonparenchymal ral liver epithelial cells; format: functional; conditions: Epithelial cell
[2] = target: ATP-dependent translocase ABCB1 (Rattus norvegicus, UniProt P43245); experiment: TP_TRANSPORTER: RT-PCR in vitro, nonparenchymal rat liver epithelial cells; format: functional, tissue-based; conditions: epithelial cell
Chain of ATP-dependent translocase ABCB1 (P43245 whole entry): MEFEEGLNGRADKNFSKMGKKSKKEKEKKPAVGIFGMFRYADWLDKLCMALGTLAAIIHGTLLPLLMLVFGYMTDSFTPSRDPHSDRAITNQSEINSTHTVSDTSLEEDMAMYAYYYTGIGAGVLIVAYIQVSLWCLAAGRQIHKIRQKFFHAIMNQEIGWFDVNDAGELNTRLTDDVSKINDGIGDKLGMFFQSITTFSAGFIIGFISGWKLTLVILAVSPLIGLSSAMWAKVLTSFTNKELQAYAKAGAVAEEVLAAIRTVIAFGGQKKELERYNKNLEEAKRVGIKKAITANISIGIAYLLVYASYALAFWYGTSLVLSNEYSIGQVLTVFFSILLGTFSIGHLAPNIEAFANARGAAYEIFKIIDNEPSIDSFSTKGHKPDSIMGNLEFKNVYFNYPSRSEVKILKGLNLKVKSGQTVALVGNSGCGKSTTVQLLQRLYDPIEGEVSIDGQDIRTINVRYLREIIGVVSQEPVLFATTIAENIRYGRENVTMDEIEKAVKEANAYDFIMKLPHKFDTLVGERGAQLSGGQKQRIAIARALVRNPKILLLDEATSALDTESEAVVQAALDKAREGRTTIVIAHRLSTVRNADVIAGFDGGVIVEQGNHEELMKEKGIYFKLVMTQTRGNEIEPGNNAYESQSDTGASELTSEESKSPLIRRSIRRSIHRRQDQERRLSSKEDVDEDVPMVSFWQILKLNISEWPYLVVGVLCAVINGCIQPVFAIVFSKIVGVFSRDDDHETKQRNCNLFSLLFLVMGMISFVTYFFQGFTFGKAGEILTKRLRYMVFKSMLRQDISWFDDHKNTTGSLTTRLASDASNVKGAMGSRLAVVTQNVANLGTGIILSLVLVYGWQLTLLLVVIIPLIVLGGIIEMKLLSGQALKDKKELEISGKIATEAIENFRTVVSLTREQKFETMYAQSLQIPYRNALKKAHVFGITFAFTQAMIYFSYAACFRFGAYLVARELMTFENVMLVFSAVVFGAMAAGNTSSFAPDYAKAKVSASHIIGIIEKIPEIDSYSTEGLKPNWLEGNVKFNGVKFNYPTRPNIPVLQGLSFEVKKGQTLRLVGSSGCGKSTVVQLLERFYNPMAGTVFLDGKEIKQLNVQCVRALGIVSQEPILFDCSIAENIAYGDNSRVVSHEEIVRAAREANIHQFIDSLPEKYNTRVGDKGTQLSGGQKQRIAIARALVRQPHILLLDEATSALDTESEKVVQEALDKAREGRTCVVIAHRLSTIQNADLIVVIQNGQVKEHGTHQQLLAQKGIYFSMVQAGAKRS

[3] = target: Multidrug resistance protein 1a (Rattus norvegicus) (UniProt Q6PSM0); experiment: TP_TRANSPORTER: Western in vitro, nonparenchymal rat liver epithelial cells; format: functional, tissue-based; conditions: Epithelial cell

Chain of Multidrug resistance protein 1a (Rattus norvegicus) (Q6PSM0 as listed by the source): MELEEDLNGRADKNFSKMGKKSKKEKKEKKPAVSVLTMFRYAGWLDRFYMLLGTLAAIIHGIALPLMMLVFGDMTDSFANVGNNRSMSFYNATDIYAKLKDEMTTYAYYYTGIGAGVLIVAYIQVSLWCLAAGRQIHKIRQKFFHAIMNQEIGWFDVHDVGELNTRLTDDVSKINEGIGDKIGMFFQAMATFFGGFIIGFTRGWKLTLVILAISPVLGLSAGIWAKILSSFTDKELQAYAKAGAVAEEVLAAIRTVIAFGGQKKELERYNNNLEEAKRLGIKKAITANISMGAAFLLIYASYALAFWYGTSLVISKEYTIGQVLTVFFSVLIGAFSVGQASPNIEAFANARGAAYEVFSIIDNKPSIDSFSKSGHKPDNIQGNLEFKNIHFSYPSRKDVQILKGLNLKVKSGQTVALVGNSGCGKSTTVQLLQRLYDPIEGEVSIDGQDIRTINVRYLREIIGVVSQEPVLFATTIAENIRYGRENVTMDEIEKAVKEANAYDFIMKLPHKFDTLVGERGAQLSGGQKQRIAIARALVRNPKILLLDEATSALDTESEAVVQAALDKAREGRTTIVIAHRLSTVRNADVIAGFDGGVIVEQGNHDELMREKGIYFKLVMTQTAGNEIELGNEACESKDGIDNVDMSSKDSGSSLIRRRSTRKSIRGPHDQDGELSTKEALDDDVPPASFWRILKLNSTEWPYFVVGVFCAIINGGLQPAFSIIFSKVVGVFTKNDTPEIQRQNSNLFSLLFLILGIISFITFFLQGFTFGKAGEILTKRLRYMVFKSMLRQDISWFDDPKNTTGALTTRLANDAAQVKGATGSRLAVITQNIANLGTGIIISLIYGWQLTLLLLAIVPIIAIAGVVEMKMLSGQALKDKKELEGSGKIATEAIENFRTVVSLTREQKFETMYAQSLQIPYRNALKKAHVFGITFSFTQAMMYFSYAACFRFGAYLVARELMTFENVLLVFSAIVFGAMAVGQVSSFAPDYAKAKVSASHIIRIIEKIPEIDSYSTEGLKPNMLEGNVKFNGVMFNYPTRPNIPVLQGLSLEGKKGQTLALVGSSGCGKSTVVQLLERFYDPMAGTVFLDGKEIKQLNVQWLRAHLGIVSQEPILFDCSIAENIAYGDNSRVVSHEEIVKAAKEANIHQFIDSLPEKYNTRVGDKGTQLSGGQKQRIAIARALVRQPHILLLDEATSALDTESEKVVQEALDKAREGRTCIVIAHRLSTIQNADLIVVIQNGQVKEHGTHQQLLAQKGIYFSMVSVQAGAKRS

| Compound | Activity [1] | Activity [2] | Activity [3] |
| --- | --- | --- | --- |
| C[C@@H]1C[C@@H]([C@H](O)CC2CC(=O)NC(=O)C2)C(=O)[C@@H](C)C1 | inducer [+] |  |  |
| c1ccc2c(c1)cc1ccc3cccc4ccc2c1c34 | inducer [+] |  |  |
| Cc1ccc2cc3c(ccc4ccccc43)c3c2c1CC3 [3-METHYLCHOLANTHRENE] |  | inducer [+] | inducer [+] |
